Experimental data: patent US20240391900A1, “RIP1 KINASE INHIBITOR AND USE THEREOF” (SIRONAX (BEIJING) CO., LTD., priority 2021, published 2024)

What was measured:
[1] = test system: HT-29 human colon cancer cells; experiment: In vitro biological activity assay: inhibition of TNFα/SmacM/Z_VAD FMK-induced programmed necrosis, CellTiter-Glo viability; assay type: cell-based; details: HT-29 cells, necrosis induced with TNF-α 100 ng/mL, SmacM 100 nM, Z_VAD-FMK 10 μM, overnight, cell viability by chemiluminescence
Experimental: In order to verify the inhibitory effect of the compounds of the present disclosure on programmed necrosis at the cellular level, a type of cells closely related to the RIP1 pathway, namely HT-29 human colon cancer cells, were selected. The used activation mode is a combination of tumor necrosis factor (TNFα), cysteine aspartate activator mimic (SmacM) and pan-caspase inhibitor Z_VAD FMK, and the cell viability was calculated by detecting chemiluminescence values, thus obtaining the biological activity of the compound inhibiting the programmed necrosis of cells.
Cell line: HT-29 (ATCC® HTB-38™)
• 2.1. The Growth Status of HT-29 Cells was Regularly Checked to Ensure their Normal Growth. • 2.2. McCOY's 5A culture medium containing 10% FBS was preheated in a 37° C. water bath for 30 minutes. When the culture medium was ready for use, the cell passage and inoculation was performed in a Class II safety cabinet with aseptic technique. • 2.3. In a T75 culture flask, when the growth density of cells reached the abundance of approximately 80%, the culture medium was aspirated and cells were washed twice with pre-warmed PBS. • 2.4. 2-3 mL of trypsin (Gibco, catalog number 25200-056) was added and the T75 culture flask was transferred to a 37° C. incubator. • 2.5. After 3-5 minutes, the side of the culture flask was tapped and examined under a microscope for detachment of the cells to the flask. If necessary, the cells were placed back into the incubator to wait for another 5-10 minutes until 85% of the cells were detached from each other. • 2.6. 6-9 mL of complete cell culture medium was quickly added to terminate the trypsin reaction, and then the cells were transferred to a sterile 15 mL centrifuge tube. The cells were pelleted by centrifugation at 300 g for 5-7 minutes in a centrifuge, and then the supernatant was decanted. • 2.7. The cells were resuspended in 10 mL of fresh cell culture medium and the cells were counted by using a hemocytometer. • 2.8. 3,000 cells contained in 100 μL were inoculated into each well of a sterile 96-well cell culture plate (Corning 3903) and cultured overnight at 37° C. under 5% CO2.
• 3.1. All batches of compounds were dissolved in dimethyl sulfoxide (DMSO) to prepare a 20 mM stock. • 3.2. 3 μL of 20 mM stock of each compound was added to 27 μL of DMSO and mixed thoroughly, and then diluted at a dilution ratio of […] (20 μL compound+40 μL DMSO) until the 10-12 points ended. After the compounds were diluted, they were set aside for use. • 3.3. The cell culture plate was taken out from the incubator, washed once with PBS, and replaced with a fresh culture medium free of serum. A mixture of TNF-α (100 ng/mL), SMAC mimic (SmacM, 100 nM) and Z_VAD-FMK (10 μM) was added to induce the programmed necrosis in HT-29 cells. • 3.4. The compound dilution plate was prepared, 0.5 μL of the diluted compound was added to the corresponding 96-well plate, and mixed gently. Two duplicate wells were prepared for each compound. • 3.5. The treated 96-well plate to which the compounds had been added was placed back into the 37° C. incubator containing 5% CO2 and incubated overnight.
The luminescence cell viability detection kit was used to calculate the activity of the compound by measuring the ATP content in viable cells. • 4.1. The CellTiter-Glo® buffer and dry powdered substrate were equilibrated to room temperature before use. • 4.2. The CellTiter-Glo® substrate was resuspended with Cell Titer-Glo® buffer, then homogeneously mixed by gently vortexing. • 4.3. The cell culture plate was taken out and equilibrated at room temperature for 10 minutes (usually not suitable if more than 30 minutes). • 4.4. 20 μL of enzyme/substrate mixture was added into the 96-well assay plate with a multi-channel pipettor. • 4.5. The 96-well assay plate was placed on a shaker and the content was mixed for 2-3 minutes to promote the cell lysis. • 4.6. […]

[2] = Rapid brain distribution assay (LC-MS/MS, brain tissue/plasma ratio); assay type: in vivo; details: mouse, ip, CD1 mice, intraperitoneal, grouped compounds, brain tissue and plasma taken one hour after administration, read-out: B/P
Experimental: The contents in plasma and tissue samples were measured by LC-MS/MS to obtain the ratio of the concentration in the brain tissue sample to that in the plasma sample, and compounds with blood-brain penetration could be quickly screened.
• 3.1. A group of compounds (usually 3-4 compounds, the molecular weight difference between each other was greater than 5), weighing 1-2 mg of each compound, were added into the same 4 mL weighing bottle. • 3.2. A mixed solvent of 10% DMSO+20% polyethylene glycol-15-hydroxystearate+70% H2O was used to prepare each group to a volume of 1.5 mL-2 mL. • 3.3. The mixture was ultrasonically vortexed until a homogeneous solution was obtained for intraperitioneal administration.
• 4.1. Three CD1 mice were prepared for each group and weighed. • 4.2. The administration volume was 10 mL/kg, and the mice were administered intraperitoneally. • 4.3. Timing was started after administration, and plasma samples and brain tissue samples were taken one hour later. • 4.4. The brain tissue sample was weighed, and then 4 fold volume of physiological saline was added. The resulting mixture was homogenized, and frozen at −20° C. until analysis.
• 5.1. The exact molecular weight of a compound was found from the compound information table. • 5.2. The corresponding parent ions and fragment ions were found, and the mass spectrometry condition and the liquid phase (chromatography) method were optimized to find the appropriate condition and method.
• 6.1. Plasma sample (5-fold dilution): 10 μL of the plasma sample was taken, and 40 μL of the blank plasma sample and 50 μL of the corresponding blank tissue sample were added. • 6.2 Tissue sample processing: 50 μL of the tissue sample (brain, kidney, liver and the like) was taken, and 50 μL of the blank plasma sample was added. • 6.3. The above tissue sample and the diluted plasma sample were taken, and 500 μL of the internal standard solution was added to precipitate the protein. The resulting mixture was vortexed for 2 minutes, stored by freezing at −20° C. for 1 hour and centrifuged at 3800 rpm for 15 minutes at 4° C. The supernatant was taken, 5-fold diluted with 50% MeOH, and then vortexed for 2 minutes, ready for measurement.
The sample was detected by using an appropriate LC-MS/MS method.
Distribution ratio of tissue/plasma=(peak area of compound in tissue/peak area of internal standard)/(peak area of compound in plasma/peak area of internal standard)

[3] = in vivo; cited from earlier work
[4] = test system: mouse L929 cells; details: read-out: IC50, blocking programmed necrosis; cited from earlier work
[5] = test system: human U937 cells; details: read-out: IC50, blocking programmed necrosis; cited from earlier work
[6] = test system: TNF-induced shock model; details: mice; cited from earlier work

SMILES: Cc1ncc(C#Cc2cnc(N)nc2)cc1-n1cc2c(n1)C(c1ccccc1)CC2 (stereo not shown) [Compound 42, 5-((6-methyl-5-(6-phenyl-5,6-dihydrocyclopenta[c]pyrazol-2 (4H)-yl)pyridin-3-yl)ethynyl)pyrimidin-2-amine]
- EC50 [1]: ≤ 0.1 µM
- Kp at 1 h [2]: 2.45

SMILES: Cn1cc(C#Cc2cnc(N)nc2)cc(-n2cc3c(n2)C(c2ccccc2)CC3)c1=O (stereo not shown) [Compound 44]
- EC50 [1]: ≤ 0.1 µM
- Kp at 1 h [2]: 3.25

SMILES: Nc1ncc(C#Cc2cncc(-n3cc4c(n3)C(c3cccc(F)c3)CC4)c2)cn1 (stereo not shown) [Compound 45]
- EC50 [1]: ≤ 0.1 µM
- Kp at 1 h [2]: 2.28

SMILES: Nc1ncc(C#Cc2cncc(-n3cc4c(n3)C(c3ccccc3)OC4)c2)cn1 (stereo not shown) [Compound 51, 5-(5-(6-phenyl-4H-furo[3,4-c]pyrazol-2 (6H)-yl)pyridin-3-ethynyl)pyrimidin-2-amine]
- EC50 [1]: ≤ 0.1 µM
- Kp at 1 h [2]: 2.46

SMILES: Nc1ncc(C#Cc2cncc(-n3nc4n(c3=O)CCC4c3ccccc3)c2)cn1 (stereo not shown) [Compound 52, 2-(5-((2-aminopyrimidin-5-yl)ethynyl)pyridin-3-yl)-7-phenyl-2,5,6,7-tetrahydro-3H-pyrrolo[2,1-c][1,2,4]triazole-3-one]
- EC50 [1]: ≤ 0.1 µM
- Kp at 1 h [2]: 1.1

SMILES: Nc1ncc(C#Cc2cncc(-n3nc4c(n3)C(c3ccccc3)CC4)c2)cn1 (stereo not shown) [Compound 54, 5-((5-(4-phenyl-5,6-dihydrocyclopenta[d][1,2,3]triazol-2 (4H)-yl)pyridine-3-yl)ethynyl)pyrimidin-2-amine]
- EC50 [1]: ≤ 0.1 µM
- Kp at 1 h [2]: 1.44

SMILES: Nc1ncc(C#Cc2cncc(-n3nc4c(n3)[C@H](c3ccccc3)CC4)c2)cn1 [Compound 55, (S)-5-((5-(4-phenyl-5,6-dihydrocyclopenta[d][1,2,3]triazol-2 (4H)-yl)pyridin-3-yl)ethynyl)pyrimidin-2-amine]
- EC50 [1]: ≤ 0.1 µM
- Kp at 1 h [2]: 2.61

SMILES: Nc1ncc(C#Cc2cncc(-n3nc4c(n3)[C@@H](c3ccccc3)CC4)c2)cn1 [Compound 56, (R)-5-((5-(4-phenyl-5,6-dihydrocyclopenta[d][1,2,3]triazol-2 (4H)-yl)pyridin-3-yl)ethynyl)pyrimidin-2-amine]
- EC50 [1]: > 1 µM
- Kp at 1 h [2]: 1.2

SMILES: Cn1c(-n2nc3c(n2)C(c2ccccc2)CC3)cc(C#Cc2cnc(N)nc2)cc1=O (stereo not shown) [Compound 57, 4-((2-aminopyrimidin-5-yl)ethynyl)-1-methyl-6-(4-phenyl-5,6-dihydrocyclopenta[d][1,2,3]triazol-2 (4H)-yl)pyridine-2 (1H)-one]
- EC50 [1]: ≤ 0.1 µM
- Kp at 1 h [2]: 2.16

SMILES: Cc1ncc(C#Cc2cnc(N)nc2)cc1-n1nc2c(n1)C(c1ccccc1)CC2 (stereo not shown) [Compound 58, 5-((6-methyl-5-(4-phenyl-5,6-dihydrocyclopenta[d][1,2,3]triazol-2 (4H)-yl)pyridin-3-yl)ethynyl)pyrimidin-2-amine]
- EC50 [1]: ≤ 0.1 µM
- Kp at 1 h [2]: 2.93

SMILES: Nc1ncc(CCc2cncc(-n3cc4c(n3)[C@H](c3ccccc3)CC4)c2)cn1 [Compound 61, (S)-5-(2-(5-(6-phenyl-5,6-dihydrocyclopenta[c]pyrazol-2 (4H)-yl)pyridin-3-yl)ethyl)pyrimidin-2-amine]
- EC50 [1]: ≤ 0.1 µM
- Kp at 1 h [2]: 1.17

SMILES: Cn1c(-n2nc3c(n2)C(c2cccnc2)CC3)cc(C#Cc2cnc(N)nc2)cc1=O (stereo not shown) [Compound 62]
- EC50 [1]: ≤ 0.1 µM
- Kp at 1 h [2]: 0.388

SMILES: Nc1ncc(C#Cc2cncc(-n3nc4c(n3)C(c3cc(F)cc(F)c3)CC4)c2)cn1 (stereo not shown) [Compound 63, 5-((5-(4-(3,5-difluorophenyl)-5,6-dihydrocyclopenta[d][1,2,3]triazol-2 (4H)-yl)pyridin-3-yl)ethynyl)pyrimidin-2-amine]
- EC50 [1]: ≤ 0.1 µM
- Kp at 1 h [2]: 3.77

SMILES: Cn1c(-n2nc3c(n2)C(C2CCCCC2)CC3)cc(C#Cc2cnc(N)nc2)cc1=O (stereo not shown) [Compound 65, 4-((2-aminopyrimidin-5-yl)ethynyl)-6-(4-cyclohexyl-5,6-dihydrocyclopenta[d][1,2,3]triazol-2 (4H)-yl)-1-methylpyridin-2 (1H)-one]
- EC50 [1]: ≤ 0.1 µM
- Kp at 1 h [2]: 1.12

SMILES: Cc1ncc(C#Cc2cn[nH]c2)cc1-n1nc2c(n1)C(c1ccccc1)CC2 (stereo not shown) [Compound 66, 2-(5-((1H-pyrazole-4-yl)ethynyl)-2-methylpyridin-3-yl)-4-phenyl-2,4,5,6-tetrahydrocyclopenta[d][1,2,3]triazole]
- EC50 [1]: ≤ 0.1 µM
- Kp at 1 h [2]: 3.62

SMILES: CN1C(=O)[C@@H](NC(=O)c2nnc(Cc3ccccc3)[nH]2)COc2ccccc21 [GSK2982772]
- brain tissue distribution [3]: low brain tissue distribution

SMILES: CC(C)(C)C(=O)N1N=CC[C@H]1c1ccccc1 [GSK′963]
- IC50 [4]: 0.001 µM
- IC50 [5]: 0.004 µM
- effect on hypothermia [6]: effectively inhibit hypothermia
